Entries after “also recorded” stand apart in the source; their conditions may differ.

In data set [1] the test system is Parathormon. Kind of data set: Plasma levels of parathormone and Ca2+ in Ca2+-infused anaesthetised rats after i.v. injection. The settings on record: for Stimulierung des PTH: Ratten. The format is in vivo, Wistarratten. An excerpt: (§1) In Ratten wurde durch eine Ca^2+-Gluconat-Infusion der Plasma-Ca^2+-Spiegel erhöht. Durch diese Infusion wird der PTH-Spiegel suppremiert (The New England J. Med. 307, 1982, S. 226 - 228). Eine Bolusinjektion der Gonadoliberinagonisten erhöhte jedoch signifikant den PTH-Spiegel gegenüber den Kontrollen und potenzierte das Plasma-Ca^2+. Das 30 Minuten nach der Injektion der Gonadoliberinagonisten erhöhte PTH bewirkte nach 60 Minuten einen signifikanten Serum-Ca^2+-Anstieg. Daß diese Beeinflußung des Plasma-Ca^2+-Spiegels durch endogenes PTH oder PTH selbst einen Einfluß auf den Blutdruck hat, wurde an einer Frau mit zu hohem Blutdruck überprüft. Nach einmaliger intranasaler Gabe von 100 mcg Gonadoliberin, was bei einer Resorptionsrate von 2 - 5 % also nur etwa 2 - 5 mcg resorbierten Gonadoliberins entspricht, konnte der erhöhte Blutdruck 8 Stunden lang stark gesenkt werden.
Zwei Gruppen von je 31 Wistarratten wurden mit Pentobarbital (45 mg/kg i.p.) narkotisiert. Man entnahm von allen Tieren eine Blutprobe (Ausgangswert). […] Nach 30, 60, 90, 120 und 180 Minuten wurde ein Teil der Tiere getötet und entblutet. Das Blutserum wurde auf Ca^2+ und Parathormon untersucht.
In beiden-Figuren ist bei den einzelnen Meßpunkten die Anzahl n der Messungen sowie die Standardabweichung des Meßwertes (graphisch) angegeben.

The nature of data set [2]: Blood pressure lowering in a hypertensive person after intranasal dosing. The format is in vivo, Mensch. As to conditions: for systolischer Blutdruck: hypertensive person, 100 µg intranasal, baseline etwa 150 mm Hg.
Text: as §1
Eine hypertensive, 48 Jahre alte Frau, deren Bluthochdruck mit ß-Blockern behandelt wird, setzte ihre Be-.handlung am Versuchstag aus. Versuchsbeginn: 17.00 Uhr.
Der systolische Blutdruck von etwa 150 mm Hg sank nach intranasaler Gabe von 100 µg Gonadoliberin innerhalb von 30 Minuten auf etwa 125 mm Hg, blieb 90 Minuten bei 125 mm Hg und stieg dann für die nächsten 4 Stunden auf 130 mm Hg. Nach einer 8-stündigen Bettruhe, während der die Versuchsperson ausgezeichnet schlief, war der Blutdruck auf etwa 137 mm Hg gestiegen.

The nature of data set [3]: Treatment of muscle pain (McArdle-Erkrankung) in a person, intranasal dosing. The class given is in vivo, Mensch. From the text:
[…] mit starken Muskelschmerzen am Oberarm (McArdle-Erkrankung) gab man 100 mcg Gonadoliberin intra- nasal. Die starken Dauerschmerzen verschwanden nach etwa 15 Minuten. Am Anfang der Behandlung wurde mehrmals täglich (3 mal), später 2 mal und dann nur noch einmal täglich appliziert um einer Tachyphylaxie vorzubeugen. […] Der anfangs sehr schwache Blutdruck der Patientin von 90/60 wurde interessanterweise nicht weiter gesenkt, sondern leicht erhöht, so daß er sich während der Therapie auf 110/65 einpendelte. Diese kleinen Gonadoliberindosen wirken also nicht generell blutdrucksenkend ', sondern können auch bei niedrigem Blutdruck blutdruckerhöhend wirken.
Eine Frau, 46 Jahre alt, hatte starke Schmerzen im Oberarm. Der Arm konnte nicht vom Körper weg bewegt werden. Nach einer intranasalen Applikation von 100 µg Gonadoliberin war der Dauerschmerz in Ruhehaltung verschwunden. Der sehr schwache Blutdruck von 90/60 stieg während der Behandlung mit Gonadoliberin auf 110/65. Am ersten Tag wurde insgesamt 3 mal, am zweiten und dritten Tag 2 mal und am vierten und folgenden Tagen nur noch einmal täglich am Morgen therapiert. Im Lauf der Therapie wurden auch die Bewegungsschmerzen weniger und der Arm konnte wieder normal bewegt werden.

Data set [4] is described as follows: Intranasal absorption of Gonadoliberin. The settings on record: intranasal dose of 100 mcg, calculated from the Resorptionsrate. The format is in vivo, Mensch.
For data set [5] the following is noted: je nach Test; literature (Vitamins and Hormons 38, 1980; J. Med. Chem. 25, 1982); cited from earlier work.
The test system of data set [6] is Plasma-Glucose. The settings on record: Kaninchen, Glucosebolus 500 mg/kg i.v.; 5 ng/kg i.v.; after 70 - 90 Minuten; Verum-Gruppe vs Placebo-Gruppe.
Description: Der Einfluß auf den Blutzucker. wurde zunächst an Kaninchen überprüft. Kaninchen wurden zur Hemmung des endogen Glucagons mit einem Glucosebolus versehen.
Je 3 wachen Kaninchen gab man einen Glucosebolus (500 mg/ kg i.v.). […] Nach 10, 30, 40, 50, 60, 70, 80 und 90 Minuten wurde Blut abgenommen und daraus die Blutglucose bestimmt.
Bei den einzelnen Meßpunkten ist jeweils graphisch die Standardabweichung des Meßwertes angegeben (n ist jeweils 3).
Where [7] appears, read: person with high blood pressure, single intranasal dose of 100 mcg.

On to `CC(C)C[C@H](NC(=O)CNC(=O)[C@H](Cc1ccc(O)cc1)NC(=O)[C@H](CO)NC(=O)[C@H](Cc1c[nH]c2ccccc12)NC(=O)[C@H](Cc1cnc[nH]1)NC(=O)[C@@H]1CCC(=O)N1)C(=O)N[C@@H](CCCNC(=N)N)C(=O)N1CCC[C@H]1C(=O)NCC(N)=O` [Gonadoliberin], for which the “Stimulierung des PTH” value in data set [1] (dose 50 ng/kg) is recorded as “stimulieren”. The “systolischer Blutdruck” value was approximately 137 mm Hg in data set [2] (after a subsequent 8-hour bed rest), 125 mm Hg in data set [2] (maintained for 90 Minuten after the fall), 130 mm Hg in data set [2] (the following 4 Stunden) and approximately 125 mm Hg in data set [2] (within 30 Minuten). Further, in data set [2] (setting [7]), the “duration of blood pressure lowering” value was 8 Stunden. Besides, in data set [2] (setting [7]), the “erhöhter Blutdruck” value is recorded as “stark gesenkt”. Besides, the “time until the starke Dauerschmerzen disappeared” value in data set [3] (person with muscle pain in the upper arm (McArdle-Erkrankung), 100 mcg intranasal) is reported as approximately 15 Minuten. Further, the “Bewegungsschmerzen / movement of the arm” value in data set [3] (person with muscle pain, 100 µg intranasal 3 to 1 times daily, in the course of therapy) is recorded as “ohne Schmerzen bewegt; also recorded: weniger”. For the same compound, in data set [3] (person with muscle pain, 100 µg intranasal, during therapy, baseline 90/60), the Blutdruck is 110/65. For the same compound, in data set [3] (person, upper arm pain, 100 µg intranasal), the “Dauerschmerz in Ruhehaltung” value is given as “verschwunden”. Further, the “resorbiertes Gonadoliberin” value in data set [4] is 2 to 5 µg.
On to `CC(C)C[C@H](NC(=O)[C@@H](Cc1ccc2ccccc2c1)NC(=O)[C@H](Cc1ccc(O)cc1)NC(=O)[C@H](CO)NC(=O)[C@H](Cc1c[nH]c2ccccc12)NC(=O)[C@H](Cc1cnc[nH]1)NC(=O)[C@@H]1CCC(=O)N1)C(=O)N[C@@H](CCCNC(=N)N)C(=O)N1CCC[C@H]1C(=O)NCC(N)=O` [[D-3-(2-Naphthyl)-Ala^6] Gonadoliberin], for which the “Wirkung relative to Gonadoliberin (mal stärker)” value in data set [5] is recorded as “noch höhere Aktivitäten”.
Regarding `Cc1cc(C)c(C[C@@H](NC(=O)[C@H](Cc2ccc(O)cc2)NC(=O)[C@H](CO)NC(=O)[C@H](Cc2c[nH]c3ccccc23)NC(=O)[C@H](Cc2cnc[nH]2)NC(=O)[C@@H]2CCC(=O)N2)C(=O)N[C@@H](CC(C)C)C(=O)N[C@@H](CCCNC(=N)N)C(=O)N2CCC[C@H]2C(=O)NCC(N)=O)c(C)c1` [[D-3-(2.4.6.Trimethylphenyl)-Ala^6]-Gonadoliberin], the “Wirkung relative to Gonadoliberin (mal stärker)” value in data set [5] is recorded as “noch höhere Aktivitäten”.
Take “[D-Ser(Bu^t) ^6] Gonadoliberin-(1-9)-nonapeptid-ethylamid [Buserelin]”: in data set [1] (dose 5 ng/kg), the “Stimulierung des PTH” value is listed as “stimulieren”. In addition, the “Parathormon im Blutserum” value in data set [1] (Wistarratten, Ca2+-Infusion 30 mg/kg/h, 5 ng/kg i.v., after 30 Minuten, Verum-Gruppe vs Placebogruppe) is “signifikant an”. In addition, the “Ca^2+-Spiegel im Blutserum” value in data set [1] (Wistarratten, Ca2+-Infusion 30 mg/kg/h, 5 ng/kg i.v., after 60 Minuten, Verum-Gruppe vs Placebogruppe) was “deutlich erhöht”. Further, the Blutglucosewerte result in data set [6] is recorded as “signifikant erhöht”.

The values above are taken from EP0137294A2, “Gonadoliberin and gonadoliberin agonists in the treatment of metabolic diseases due to too small a parathormone level” (HOECHST AKTIENGESELLSCHAFT, priority 1983, dated 1985).
